Where a name gives a salt, the structure may show the parent alone. Read-outs that look alike come from different tables or passages of the source.
How the values were obtained:
Experiment in all cases: Post-emergence efficacy, glasshouse, evaluated after 13 days
Type in all cases: in vivo
[1] = tested on: Lolium perenne (LOLPE); conditions: for pest or weed control at 500 g/ha: Lolium perenne, 312 h, read-out: Control of weed species LOLPE (100=total damage to plant; 0=no damage to plant)
Method: (§1) Seeds of a variety of test species were sown in standard soil in pots. After cultivation for 14 days (post-emergence) under controlled conditions in a glasshouse (at 24/16° C., day/night; 14 hours light; 65% humidity), the plants were sprayed with an aqueous spray solution derived from the dissolution of the technical active ingredient formula (I) in a small amount of acetone and a special solvent and emulsifier mixture referred to as IF50 (11.12% Emulsogen EL360 TM+44.44% N-methylpyrrolidone+44.44% Dowanol DPM glycol ether), to create a 50 g/l solution which was then diluted to required concentration using 0.25% or 1% Empicol ESC70 (Sodium lauryl ether sulphate)+1% ammonium sulphate as diluent.
(§2) The test plants were then grown in a glasshouse under controlled conditions (at 24/16° C., day/night; 14 hours light; 65% humidity) and watered twice daily. After 13 days the test was evaluated (100=total damage to plant; 0=no damage to plant).
(§3) Ipomoea hederacea (IPOHE), Euphorbia heterophylla (EPHHL), Chenopodium album (CHEAL), Amaranthus palmeri (AMAPA), Lolium perenne (LOLPE), Digitaria sanguinalis (DIGSA), Eleusine indica (ELEIN), Echinochloa crus-galli (ECHCG), Setaria faberi (SETFA)

[2] = tested on: Euphorbia heterophylla (EPHHL); conditions: Euphorbia heterophylla, 312 h, read-out: Control of weed species EPHHL (100=total damage to plant; 0=no damage to plant)
Method: as §1, §2, §3

[3] = tested on: Chenopodium album (CHEAL); conditions: for pest or weed control at 500 g/ha: Chenopodium album, 312 h, read-out: Control of weed species CHEAL (100=total damage to plant; 0=no damage to plant)
Method: as §1, §2, §3

[4] = tested on: Amaranthus palmeri (AMAPA); conditions: for pest or weed control at 500 g/ha: Amaranthus palmeri, 312 h, read-out: Control of weed species AMAPA (100=total damage to plant; 0=no damage to plant)
Method: as §1, §2, §3

[5] = tested on: Echinochloa crus-galli (ECHCG); conditions: for pest or weed control at 500 g/ha: Echinochloa crus-galli, 312 h, read-out: Control of weed species ECHCG (100=total damage to plant; 0=no damage to plant)
Method: as §1, §2, §3

[6] = tested on: Eleusine indica (ELEIN); conditions: for pest or weed control at 500 g/ha: Eleusine indica, 312 h, read-out: Control of weed species ELEIN (100=total damage to plant; 0=no damage to plant)
Method: as §1, §2, §3

[7] = tested on: Ipomoea hederacea (IPOHE); conditions: for pest or weed control at 500 g/ha: Ipomoea hederacea, 312 h, read-out: Control of weed species IPOHE (100=total damage to plant; 0=no damage to plant)
Method: as §1, §2, §3

[8] = tested on: Digitaria sanguinalis (DIGSA); conditions: for pest or weed control at 500 g/ha: Digitaria sanguinalis, 312 h, read-out: Control of weed species DIGSA (100=total damage to plant; 0=no damage to plant)
Method: as §1, §2, §3

[9] = tested on: Setaria faberi (SETFA); conditions: for pest or weed control at 500 g/ha: Setaria faberi, 312 h, read-out: Control of weed species SETFA (100=total damage to plant; 0=no damage to plant)
Method: as §1, §2, §3

[10] = post-emergence application, 500 g/Ha, evaluated after 13 days

Structure (SMILES)	pest or weed control at 500 g/ha [1, 10] [%]	pest or weed control at 500 g/ha [2, 10] [%]	pest or weed control at 500 g/ha [3, 10] [%]	pest or weed control at 500 g/ha [4, 10] [%]	pest or weed control at 500 g/ha [5, 10] [%]	pest or weed control at 500 g/ha [6, 10] [%]	pest or weed control at 500 g/ha [7, 10] [%]	pest or weed control at 500 g/ha [8, 10] [%]	pest or weed control at 500 g/ha [9, 10] [%]	also measured
CNC(=O)c1cc[n+](CCS(=O)(=O)[O-])nc1 [Compound A1, 2-[4-(methylcarbamoyl)pyridazin-1-ium-1-yl]ethanesulfonate]	80	70	70	100	60	70	60	90	80	
CNC(=O)c1cc[n+](CCC(=O)O)nc1 [Compound A4, 3-[4-(methylcarbamoyl)pyridazin-1-ium-1-yl]propanoic acid trifluoroacetate]										pest or weed control at 500 g/ha ([1]; post-emergence): 60%; pest or weed control at 500 g/ha ([2]; post-emergence): 90%; pest or weed control at 500 g/ha ([3]; post-emergence): 80%; pest or weed control at 500 g/ha ([5]; post-emergence): 90%; pest or weed control at 500 g/ha ([6]; post-emergence): 100%; pest or weed control at 500 g/ha ([7]; post-emergence): 80%; pest or weed control at 500 g/ha ([8]; post-emergence): 100%; pest or weed control at 500 g/ha ([9]; post-emergence): 90%
CC(C)N(C)C(=O)c1cc[n+](CCS(=O)(=O)O)nc1 [Compound A9]	30		90	90	30	20	30	50	60	
CCCCNC(=O)c1cc[n+](CCC(=O)O)nc1 [Compound A45]	60		90	80	70	80	30	70	90	
CCNC(=O)c1cc[n+](CCS(=O)(=O)[O-])nc1 [Compound A48]	70			90	70	100	80	90	90	
O=C(NCCO)c1cc[n+](CCS(=O)(=O)[O-])nc1 [Compound A49]	60		80	100	80	30	70	100	90	
CNC(=O)c1cc[n+](CCS(=O)(=O)[O-])nc1-c1ccccc1 [Compound A54]	0		70	80	40	50	10	60	20	
CNC(=O)c1cc[n+](CCC(=O)O)nc1-c1ccccc1 [Compound A55]	0		80	100	80	30	40	60	40	
CNC(=O)c1cc[n+](CCS(=O)(=O)[O-])nc1C [Compound A56]										Control of weed species LOLPE (100=total damage to plant; 0=no damage to plant) [1, 10]: 40; Control of weed species CHEAL (100=total damage to plant; 0=no damage to plant) [3, 10]: 90; Control of weed species AMAPA (100=total damage to plant; 0=no damage to plant) [4, 10]: 100; Control of weed species ECHCG (100=total damage to plant; 0=no damage to plant) [5, 10]: 90; Control of weed species ELEIN (100=total damage to plant; 0=no damage to plant) [6, 10]: 60; Control of weed species IPOHE (100=total damage to plant; 0=no damage to plant) [7, 10]: 30; Control of weed species DIGSA (100=total damage to plant; 0=no damage to plant) [8, 10]: 80; Control of weed species SETFA (100=total damage to plant; 0=no damage to plant) [9, 10]: 60
O=C(O)CC[n+]1ccc(C(=O)NC2CCCC2)cn1 [Compound A58]	90		60	70	70	90	30	90	90	
O=C(O)CC[n+]1ccc(C(=O)NC2CS(=O)(=O)C2)cn1 [Compound A67]	90		50	30	100	90	30	100	100	
O=C(O)CC[n+]1ccc(C(=O)NC2C[S+]([O-])C2)cn1 (stereo not drawn) [Compound A68]	90	100	90	100	100		100	100	70	
C#CC(C)(C)NC(=O)c1cc[n+](CCC(=O)O)nc1 [Compound A77]	80	100	90	100			10		100	
C#CC(C)NC(=O)c1cc[n+](CCC(=O)O)nc1 (stereo not drawn) [Compound A78]	80	70	100	100			90		100	
CC(=O)NNC(=O)c1cc[n+](CCC(=O)O)nc1 [Compound A105]	10	60	70	50	40	30	30		60	
CCNC(=O)c1cc[n+](CCP(=O)(O)O)nc1 [Compound A119]	20	80	100	100	30	30	50		50	
CCNC(=O)c1cc[n+](C[C@H](N)C(=O)O)nc1 [Compound A121, [(1S)-1-carboxy-2-[4-(ethylcarbamoyl)pyridazin-1-ium-1-yl]ethyl]ammonium 2,2,2-trifluoroacetate]										pest or weed control at 500 g/ha ([1]; post-emergence): 10%; pest or weed control at 500 g/ha ([2]; post-emergence): 30%; pest or weed control at 500 g/ha ([3]; post-emergence): 20%; pest or weed control at 500 g/ha ([4]; post-emergence): 10%; pest or weed control at 500 g/ha ([5]; post-emergence): 10%; pest or weed control at 500 g/ha ([6]; post-emergence): 10%; pest or weed control at 500 g/ha ([7]; post-emergence): 10%; pest or weed control at 500 g/ha ([9]; post-emergence): 10%
